For 31 compounds, IC50 and EC50 results are on record in US20250368627A1, “PYRAZOLESULFONAMIDES AS ANTITUMOR AGENTS” (Peloton Therapeutics, Inc., a fully owned subsidiary of …, priority 2019, published 2025).

The structures appear in SMILES notation.

The target of experiment [1] is T1, DDB1DB/DCAF15 and RBM39 R1R2 complex (Homo sapiens, UniProt Q14498+Q66K64).
T1 construct: Amino acids 150 to 331 of RBM39 were cloned into pGEX4T3; GST (from vector pGEX4T3); TEV cleavage site (N); made in house; host or cells: DDB1DB/His-DCAF15: baculovirus/Sf9 co-expression; RBM39 R1R2: E. coli (pGEX4T3)
Description: DCAF15 RBM39 Complex Formation Assay (FRET). In kind it is binding. The following applies: FRET ratio Em 665/Em 615, incubated overnight at 4° C. A digest of the protocol:
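Ternary complex formation read by TR-FRET (Em 665/615, excitation 340 nm) after overnight incubation at 4° C of 20 nM baculovirus DDB1DB/His-DCAF15 and 50 nM E. coli RBM39 RRM1-RRM2 FLAG fragment with 14-point, 3-fold compound dilutions from 1 μM; EC50 from 4-parameter fit.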

Experiment [2] relates to HCT116 human colorectal carcinoma cells. Description: CellTiter-Glo Luminescent Cell Viability Assay. It counts as cell-based. The following applies: HCT-116, 72 h, 3 days. The procedure, abridged:
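HCT116 cells were exposed for 3 days to compound in triplicate at final concentrations of 5 to 0.0002 […] (1:3 dilutions). Viability was read by CellTiter-Glo luminescence, and IC50 values were calculated.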
(In ATP-based viability assays light output follows the ATP content of the culture.)

T1 sequence (Q66K64 whole entry, the tested form may be a part): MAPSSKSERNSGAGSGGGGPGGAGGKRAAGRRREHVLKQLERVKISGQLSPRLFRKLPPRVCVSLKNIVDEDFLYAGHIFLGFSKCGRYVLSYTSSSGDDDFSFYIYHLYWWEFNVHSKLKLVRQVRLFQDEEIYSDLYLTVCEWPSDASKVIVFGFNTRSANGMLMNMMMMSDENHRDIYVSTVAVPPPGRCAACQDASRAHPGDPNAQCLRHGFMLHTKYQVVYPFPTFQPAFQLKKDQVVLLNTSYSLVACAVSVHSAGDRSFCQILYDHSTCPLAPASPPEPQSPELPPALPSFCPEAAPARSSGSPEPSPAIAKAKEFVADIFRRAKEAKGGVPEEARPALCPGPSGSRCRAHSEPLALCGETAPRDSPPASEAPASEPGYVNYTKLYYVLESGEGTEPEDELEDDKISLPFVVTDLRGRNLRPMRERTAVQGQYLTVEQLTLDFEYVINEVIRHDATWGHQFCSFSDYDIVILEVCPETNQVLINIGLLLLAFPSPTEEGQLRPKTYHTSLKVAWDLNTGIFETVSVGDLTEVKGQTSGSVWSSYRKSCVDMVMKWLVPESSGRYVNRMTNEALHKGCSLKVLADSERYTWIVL
T1 sequence (Q14498 150-331): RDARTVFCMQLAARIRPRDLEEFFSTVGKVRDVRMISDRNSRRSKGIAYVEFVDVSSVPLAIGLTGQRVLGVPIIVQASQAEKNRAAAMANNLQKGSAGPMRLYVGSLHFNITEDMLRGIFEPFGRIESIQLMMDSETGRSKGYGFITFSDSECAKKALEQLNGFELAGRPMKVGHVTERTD
T1 sequence (Q16531 with tags, fused parts or gaps DEL396-708 partner): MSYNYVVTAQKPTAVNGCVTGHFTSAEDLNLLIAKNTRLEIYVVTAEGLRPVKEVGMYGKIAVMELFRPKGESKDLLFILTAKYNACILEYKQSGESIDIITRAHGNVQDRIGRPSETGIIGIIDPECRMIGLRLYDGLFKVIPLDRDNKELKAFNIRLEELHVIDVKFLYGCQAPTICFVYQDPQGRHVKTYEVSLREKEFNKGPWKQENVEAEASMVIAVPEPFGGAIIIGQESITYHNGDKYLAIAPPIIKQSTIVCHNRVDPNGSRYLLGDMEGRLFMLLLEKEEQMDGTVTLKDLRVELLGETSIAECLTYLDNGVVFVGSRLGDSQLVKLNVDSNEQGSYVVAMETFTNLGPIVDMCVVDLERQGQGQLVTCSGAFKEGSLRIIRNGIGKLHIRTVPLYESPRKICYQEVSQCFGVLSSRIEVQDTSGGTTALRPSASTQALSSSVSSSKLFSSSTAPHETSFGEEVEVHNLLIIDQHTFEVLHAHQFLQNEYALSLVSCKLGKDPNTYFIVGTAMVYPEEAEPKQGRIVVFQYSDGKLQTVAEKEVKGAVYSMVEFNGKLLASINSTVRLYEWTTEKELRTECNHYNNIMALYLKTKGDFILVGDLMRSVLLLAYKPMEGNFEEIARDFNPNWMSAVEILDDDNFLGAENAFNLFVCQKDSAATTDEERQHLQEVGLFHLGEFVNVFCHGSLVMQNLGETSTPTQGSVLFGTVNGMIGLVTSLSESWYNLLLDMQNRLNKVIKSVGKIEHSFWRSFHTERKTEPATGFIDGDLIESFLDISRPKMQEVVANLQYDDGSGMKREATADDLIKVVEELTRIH

`CCn1ncc(S(=O)(=O)Nc2ccc(F)c3c(C#N)c[nH]c23)c1N` [Compound 272, 5-amino-N-(3-cyano-4-fluoro-1H-indol-7-yl)-1-ethyl-pyrazole-4-sulfonamide]: in experiment [1], the IC50 is less than 250 nM. In experiment [2], the EC50 was in the range of 250 to 1000 nM.

On to `N#CCC1(n2cc(S(=O)(=O)Nc3ccc(Cl)c4c(Cl)c[nH]c34)cn2)COC1` [Compound 160, 1-[3-(cyanomethyl)oxetan-3-yl]-N-(3,4-dichloro-1H-indol-7-yl)pyrazole-4-sulfonamide], for which the IC50 in experiment [1] was less than 250 nM. Moreover, the EC50 in experiment [2] was less than 250 nM.

Take `Cc1ccc(NS(=O)(=O)c2cnn(Cc3ccccc3)c2)c2[nH]cc(C#N)c12` [Compound 89, 1-benzyl-N-(3-cyano-4-methyl-1H-indol-7-yl)pyrazole-4-sulfonamide]: the IC50 in experiment [1] was less than 250 nM. Further, the 50% effective concentration (EC50) in experiment [2] lay in the range of 250 to 1000 nM.

Take `CC(C)(C)OC(=O)N1CC(F)(Cn2cc(S(=O)(=O)Nc3ccc(Cl)c4c(C#N)c[nH]c34)cn2)C1` [Compound 254, tert-butyl 3-[[4-[(4-chloro-3-cyano-1H-indol-7-yl)sulfamoyl]pyrazol-1-yl]methyl]-3-fluoro-azetidine-1-carboxylate]: the IC50 in experiment [1] was less than 250 nM. Also, the EC50 in experiment [2] is 250 to 1000 nM.

For the compound `O=S(=O)(Nc1ccc(C(F)(F)F)c2c(Cl)c[nH]c12)c1cnn(CC(F)F)c1` [Compound 103, N-[3-chloro-4-(trifluoromethyl)-1H-indol-7-yl]-1-(2,2-difluoroethyl)pyrazole-4-sulfonamide], in experiment [1], the IC50 is less than 250 nM. Besides, the EC50 in experiment [2] was greater than 1000 nM.

Turning to `N#Cc1c[nH]c2c(NS(=O)(=O)c3cnn(C(F)F)c3N)cccc12` [Compound 292], the IC50 in experiment [1] was less than 250 nM. The EC50 in experiment [2] is less than 250 nM.

With `CC(C)(CO)n1cc(S(=O)(=O)Nc2ccc(Cl)c3c(Cl)c[nH]c23)cn1` [Compound 170, N-(3,4-dichloro-1H-indol-7-yl)-1-(2-hydroxy-1,1-dimethyl-ethyl)pyrazole-4-sulfonamide], the IC50 in experiment [1] is less than 250 nM. For the same compound, the EC50 in experiment [2] lay within 250 to 1000 nM.

On to `N#Cc1c[nH]c2c(NS(=O)(=O)c3cnn(CC4(O)CCOCC4)c3)ccc(Cl)c12` [Compound 184, N-(4-chloro-3-cyano-1H-indol-7-yl)-1-[(4-hydroxytetrahydropyran-4-yl)methyl]pyrazole-4-sulfonamide], for which the IC50 in experiment [1] was less than 250 nM. In addition, the EC50 in experiment [2] is greater than 1000 nM.

Turning to `N#Cc1c[nH]c2c(NS(=O)(=O)c3cnn([C@H](CO)CF)c3)ccc(Cl)c12` [Compound 311, N-(4-chloro-3-cyano-1H-indol-7-yl)-1-[(1R)-1-(fluoromethyl)-2-hydroxy-ethyl]pyrazole-4-sulfonamide], the IC50 in experiment [1] is less than 250 nM. For the same compound, the EC50 in experiment [2] is 250 to 1000 nM.

With `CC(C)(O)CCn1cc(S(=O)(=O)Nc2ccc(F)c3c(C#N)c[nH]c23)cn1` [Compound 222, N-(3-cyano-4-fluoro-1H-indol-7-yl)-1-(3-hydroxy-3-methyl-butyl)pyrazole-4-sulfonamide], the 50% inhibitory concentration (IC50) in experiment [1] is less than 250 nM. The EC50 in experiment [2] fell in the range of 250 to 1000 nM.

As for `Cn1ncc(S(=O)(=O)Nc2ccc(F)c3c(C#N)c[nH]c23)c1N` [Compound 282, 5-amino-N-(3-cyano-4-fluoro-1H-indol-7-yl)-1-methyl-pyrazole-4-sulfonamide], in experiment [1], the IC50 is less than 250 nM. For the same compound, the EC50 in experiment [2] fell in the range of 250 to 1000 nM.

As for `N#Cc1c[nH]c2c(NS(=O)(=O)c3cnn(CCCO)c3)ccc(F)c12` [Compound 211, N-(3-cyano-4-fluoro-1H-indol-7-yl)-1-(3-hydroxypropyl)pyrazole-4-sulfonamide], the IC50 in experiment [1] was less than 250 nM. Further, the EC50 in experiment [2] lay in the range of 250 to 1000 nM.

`Cc1ccc(NS(=O)(=O)c2cnn(-c3ccc(C(F)(F)F)cn3)c2)c2[nH]cc(C#N)c12` [Compound 31, N-(3-cyano-4-methyl-1H-indol-7-yl)-1-[5-(trifluoromethyl)-2-pyridyl]pyrazole-4-sulfonamide]: the IC50 in experiment [1] is less than 250 nM. Besides, the EC50 in experiment [2] is greater than 1000 nM.

As for `CC(C)(C(N)=O)n1cc(S(=O)(=O)Nc2ccc(Cl)c3c(C#N)c[nH]c23)cn1` [Compound 154, 2-[4-[(4-chloro-3-cyano-1H-indol-7-yl)sulfamoyl]pyrazol-1-yl]-2-methyl-propanamide], the IC50 in experiment [1] is less than 250 nM. Also, in experiment [2], the EC50 was 250 to 1000 nM.

As to `COCC(CO)n1cc(S(=O)(=O)Nc2ccc(C)c3c(C#N)c[nH]c23)cn1` (centres unmarked) [Compound 263, N-(3-cyano-4-methyl-1H-indol-7-yl)-1-[1-(hydroxymethyl)-2-methoxy-ethyl]pyrazole-4-sulfonamide], in experiment [1], the IC50 is less than 250 nM. The EC50 in experiment [2] is 250 to 1000 nM.

`O=S(=O)(Nc1cccc2c(Cl)c[nH]c12)c1cnn(C2CCNCC2)c1` [Compound 41, N-(3-chloro-1H-indol-7-yl)-1-(4-piperidyl)pyrazole-4-sulfonamide]: the half-maximal inhibitory concentration (IC50) in experiment [1] fell in the range of 250 to 1000 nM. For the same compound, in experiment [2], the EC50 is greater than 1000 nM.

Consider `C[C@@H](O)[C@H](C)n1cc(S(=O)(=O)Nc2ccc(Cl)c3c(C#N)c[nH]c23)cn1` [Compound 232, N-(4-chloro-3-cyano-1H-indol-7-yl)-1-[(1S,2R)-2-hydroxy-1-methyl-propyl]pyrazole-4-sulfonamide], for which the IC50 in experiment [1] was less than 250 nM. The EC50 in experiment [2] lay within 250 to 1000 nM.

Regarding `Cc1ccc(NS(=O)(=O)c2cnn(CC(C)(C)CO)c2)c2[nH]cc(C#N)c12` [Compound 258, N-(3-cyano-4-methyl-1H-indol-7-yl)-1-(3-hydroxy-2,2-dimethylpropyl)-1H-pyrazole-4-sulfonamide], the IC50 in experiment [1] is less than 250 nM. For the same compound, the EC50 in experiment [2] is less than 250 nM.

For the compound `O=S(=O)(Nc1cccc2c(Cl)c[nH]c12)c1cnn(S(=O)(=O)c2cn[nH]c2)c1` [Compound 19, N-(3-chloro-1H-indol-7-yl)-1-(1H-pyrazol-4-ylsulfonyl)pyrazole-4-sulfonamide], the IC50 in experiment [1] was less than 250 nM. In experiment [2], the EC50 was 250 to 1000 nM.

For `Cc1ccc(NS(=O)(=O)c2cnn(C(C)C)c2)c2[nH]cc(C#N)c12` [Compound 63, N-(3-cyano-4-methyl-1H-indol-7-yl)-1-isopropyl-pyrazole-4-sulfonamide], the IC50 in experiment [1] is less than 250 nM. Further, in experiment [2], the EC50 was 250 to 1000 nM.

With `Cc1ccc(NS(=O)(=O)c2cnn(CC(F)F)c2)c2[nH]cc(Cl)c12` [Compound 98, N-(3-chloro-4-methyl-1H-indol-7-yl)-1-(2,2-difluoroethyl)pyrazole-4-sulfonamide], the IC50 in experiment [1] was less than 250 nM. In addition, the EC50 in experiment [2] is less than 250 nM.

As to `Cc1ccc(NS(=O)(=O)c2cnn(CC3(F)CNC3)c2)c2[nH]cc(C#N)c12` [Compound 257, N-(3-cyano-4-methyl-1H-indol-7-yl)-1-[(3-fluoroazetidin-3-yl)methyl]pyrazole-4-sulfonamide], the IC50 in experiment [1] was less than 250 nM. In experiment [2], the EC50 is 250 to 1000 nM.

As to `COCC(CO)n1cc(S(=O)(=O)Nc2ccc(Cl)c3c(C#N)c[nH]c23)cn1` (centres unmarked) [Compound 262, N-(4-chloro-3-cyano-1H-indol-7-yl)-1-[1-(hydroxymethyl)-2-methoxy-ethyl]pyrazole-4-sulfonamide], the IC50 in experiment [1] is less than 250 nM. Further, in experiment [2], the EC50 fell in the range of 250 to 1000 nM.

Consider `Cc1ccc(NS(=O)(=O)c2cnn(C)c2C(F)F)c2[nH]cc(C#N)c12` [Compound 149, N-(3-cyano-4-methyl-1H-indol-7-yl)-5-(difluoromethyl)-1-methyl-pyrazole-4-sulfonamide], for which, in experiment [1], the IC50 was less than 250 nM. Also, in experiment [2], the EC50 fell in the range of 250 to 1000 nM.

Consider `CC(CO)(CO)n1cc(S(=O)(=O)Nc2ccc(Cl)c3c(Cl)c[nH]c23)cn1` [Compound 173, N-(3,4-dichloro-1H-indol-7-yl)-1-[2-hydroxy-1-(hydroxymethyl)-1-methyl-ethyl]pyrazole-4-sulfonamide], for which the IC50 in experiment [1] was less than 250 nM. In addition, the EC50 in experiment [2] is less than 250 nM.

Turning to `Cc1ccc(NS(=O)(=O)c2cnn(C3COC3)c2)c2[nH]cc(C#N)c12` [Compound 64, N-(3-cyano-4-methyl-1H-indol-7-yl)-1-(oxetan-3-yl)pyrazole-4-sulfonamide], in experiment [1], the IC50 is less than 250 nM. For the same compound, the EC50 in experiment [2] is less than 250 nM.

Turning to `O=S(=O)(Nc1cccc2c(Cl)c[nH]c12)c1cnn(CF)c1` [Compound 56, N-(3-chloro-1H-indol-7-yl)-1-(fluoromethyl)pyrazole-4-sulfonamide], the IC50 in experiment [1] is less than 250 nM. Besides, the EC50 in experiment [2] is 250 to 1000 nM.

For `Cc1ccc(NS(=O)(=O)c2cnn(CC(=O)NC3CC(F)(F)C3)c2)c2[nH]cc(C#N)c12` [Compound 137, 2-[4-[(3-cyano-4-methyl-1H-indol-7-yl)sulfamoyl]pyrazol-1-yl]-N-(3,3-difluorocyclobutyl)acetamide], the IC50 in experiment [1] was less than 250 nM. Moreover, the EC50 in experiment [2] is greater than 1000 nM.

On to `Cn1ncc(S(=O)(=O)Nc2ccc(Cl)c3c(C#N)c[nH]c23)c1N` [Compound 180, 5-amino-N-(4-chloro-3-cyano-1H-indol-7-yl)-1-methyl-pyrazole-4-sulfonamide], for which the IC50 in experiment [1] was less than 250 nM. For the same compound, the EC50 in experiment [2] was less than 250 nM.

In the case of `O=S(=O)(Nc1ccc(Cl)c2c(Cl)c[nH]c12)c1cnn(CCO)c1` [Compound 163, N-(3,4-dichloro-1H-indol-7-yl)-1-(2-hydroxyethyl)pyrazole-4-sulfonamide], in experiment [1], the IC50 is less than 250 nM. Further, the EC50 in experiment [2] was less than 250 nM.

On to `COC1CC(n2cc(S(=O)(=O)Nc3cccc4c(Cl)c[nH]c34)cn2)C1` (centres unmarked) [Compound 190, N-(3-chloro-1H-indol-7-yl)-1-(3-methoxycyclobutyl)pyrazole-4-sulfonamide], for which the IC50 in experiment [1] is less than 250 nM. The EC50 in experiment [2] was in the range of 250 to 1000 nM.

A word on the IC50: it is the concentration needed to halve the response being measured. Broadly, the EC50 is the concentration at which the effect is half-maximal.
